Calls of active or inactive are those of the source. No cut-off for these calls is given here.
Tests used:
Type in all cases: functional
Triticum aestivum [1] = assay: Inhibition of etiolated wheat coleoptile growth at 10^-5 M relative to control
Triticum aestivum [2] = assay: Inhibition of etiolated wheat coleoptile growth at 10^-4 M relative to control
Triticum aestivum [3] = assay: Inhibition of etiolated wheat coleoptile growth at 10^-3 M relative to control

CC(C)(O)[C@@]1(O)[C@@H]2CCC(CO)=CC[C@@]2(C)C[C@@H]1O
Activity (Triticum aestivum [1]): inactive
Activity (Triticum aestivum [2]): inactive
Activity (Triticum aestivum [3]): inactive

CC(C)[C@@]1(O)[C@@H]2CC[C@@]3(C)O[C@H]3C[C@@]2(C)C[C@@H]1O [TRICHOCARANE A]
inhibition at 100 µM (Triticum aestivum [2]): 40%

CC(C)[C@@]1(O)[C@@H]2CCC(CO)=CC[C@@]2(C)C[C@@H]1O [TRICHOCARANE B]
inhibition at 10 µM (Triticum aestivum [1]): 19%
inhibition at 100 µM (Triticum aestivum [2]): 40%

CC(C)[C@@]1(O)[C@@H]2CCC(CO)CC[C@@]2(C)C[C@@H]1O (some centres not stated) [TRICHOCARANE C]
inhibition at 1000 µM (Triticum aestivum [3]): 86%
